Source: patent US11046699B2, “Pyrazolo-pyrimidin-amino-cycloalkyl compounds and their therapeutic uses” (RAPT THERAPEUTICS, INC., priority 2018, dated 2021)
pIC50: −log10 of the molar value. Where two headings read alike, the source gives them in different places.

Target: GCN2 (Homo sapiens, UniProt Q9P2K8)
Experiment: GCN2 enzymatic endpoint assay: phosphorylation of GFP-eIF2α measured by TR-FRET (Lanthascreen)
Assay type: biochemical
Outline: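 Read-out is the TR-FRET ratio of acceptor signal at 520 nm to terbium donor at 495 nm, rising with antibody binding to phosphorylated GFP-eIF2α. Endpoint format: 2 μM ATP, 80 nM substrate, 90 minutes at room temperature, EDTA stop.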

[1] = tested as described in Example 77, compound and/or hydrochloride, dihydrochloride or trifluoroacetic acid salt, read-out: IC 50 Activity

Chain of GCN2 (Q9P2K8 whole entry): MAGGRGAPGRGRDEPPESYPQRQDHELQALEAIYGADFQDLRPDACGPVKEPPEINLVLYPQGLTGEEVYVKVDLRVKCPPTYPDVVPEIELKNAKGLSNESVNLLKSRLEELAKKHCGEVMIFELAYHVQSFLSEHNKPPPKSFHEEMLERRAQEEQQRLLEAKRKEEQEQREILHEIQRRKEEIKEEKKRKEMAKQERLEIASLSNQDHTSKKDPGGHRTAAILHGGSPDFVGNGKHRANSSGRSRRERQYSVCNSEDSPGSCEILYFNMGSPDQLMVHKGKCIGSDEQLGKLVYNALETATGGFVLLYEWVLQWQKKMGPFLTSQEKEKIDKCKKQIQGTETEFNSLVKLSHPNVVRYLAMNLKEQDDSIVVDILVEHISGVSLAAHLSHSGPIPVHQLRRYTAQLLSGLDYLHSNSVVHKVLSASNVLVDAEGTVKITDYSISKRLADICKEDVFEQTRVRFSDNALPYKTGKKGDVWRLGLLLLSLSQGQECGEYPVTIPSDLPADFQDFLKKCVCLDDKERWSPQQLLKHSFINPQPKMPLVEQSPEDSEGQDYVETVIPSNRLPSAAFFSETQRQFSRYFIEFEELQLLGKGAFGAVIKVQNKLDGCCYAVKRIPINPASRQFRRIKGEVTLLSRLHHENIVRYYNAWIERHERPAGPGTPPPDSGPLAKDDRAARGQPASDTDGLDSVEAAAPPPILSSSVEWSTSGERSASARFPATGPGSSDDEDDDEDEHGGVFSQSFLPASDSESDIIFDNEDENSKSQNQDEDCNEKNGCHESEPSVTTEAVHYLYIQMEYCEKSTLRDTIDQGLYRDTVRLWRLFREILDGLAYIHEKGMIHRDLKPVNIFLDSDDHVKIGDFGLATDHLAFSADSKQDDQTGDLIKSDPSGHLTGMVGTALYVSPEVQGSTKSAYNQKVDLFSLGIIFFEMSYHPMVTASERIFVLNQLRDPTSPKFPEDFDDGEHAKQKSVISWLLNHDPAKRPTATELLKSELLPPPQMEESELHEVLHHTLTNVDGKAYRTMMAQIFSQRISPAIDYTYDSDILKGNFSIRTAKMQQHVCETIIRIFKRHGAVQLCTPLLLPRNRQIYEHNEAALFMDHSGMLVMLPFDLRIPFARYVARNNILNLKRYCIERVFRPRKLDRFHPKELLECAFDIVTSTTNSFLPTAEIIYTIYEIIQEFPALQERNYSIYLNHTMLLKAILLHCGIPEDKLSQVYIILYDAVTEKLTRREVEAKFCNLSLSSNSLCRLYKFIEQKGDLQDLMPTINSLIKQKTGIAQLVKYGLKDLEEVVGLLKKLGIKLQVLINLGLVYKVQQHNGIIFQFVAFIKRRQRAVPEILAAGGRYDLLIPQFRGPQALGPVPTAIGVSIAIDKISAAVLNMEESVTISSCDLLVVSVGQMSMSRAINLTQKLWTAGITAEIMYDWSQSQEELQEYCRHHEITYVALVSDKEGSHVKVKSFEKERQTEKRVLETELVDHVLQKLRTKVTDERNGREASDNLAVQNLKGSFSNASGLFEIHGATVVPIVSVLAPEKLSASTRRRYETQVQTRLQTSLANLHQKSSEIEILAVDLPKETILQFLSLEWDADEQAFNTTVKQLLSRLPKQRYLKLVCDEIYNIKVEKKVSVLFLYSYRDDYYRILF

CC1(C(=O)N2CCC(F)(C#N)C2)CC[C@@H](Nc2ncc3c(Br)nn(-c4cc(F)c5ncccc5c4)c3n2)C1 (stereo partly drawn) [1-[(3R)-3-[[3-bromo-1-(8-fluoro-6-quinolyl)pyrazolo[3,4-d]pyrimidin-6-yl]amino]-1-methyl-cyclopentanecarbonyl]-3-fluoro-pyrrolidine-3-carbonitrile]
pIC50 [1]: 6.70 to 7.60

CNC(=O)[C@]1(C)CC[C@@H](Nc2ncc3c(Br)nn(-c4ccc5ncc(OCCOC)cc5c4)c3n2)C1 [(1R,3R)-3-[[3-bromo-1-[3-(2-methoxy-ethoxy)-6-quinolyl]pyrazolo[3,4-d]pyrimidin-6-yl]amino]-N,1-dimethyl-cyclopentanecarboxamide]
pIC50 [1]: 6.70 to 7.60

Cc1nnc(-c2ccc(-n3nc(Br)c4cnc(N[C@@H]5CC[C@@](C)(C(=O)NC6CC6)C5)nc43)cc2CCC#N)s1 [(1R,3R)-3-[[3-bromo-1-[3-(2-cyanoethyl)-4-(5-methyl-1,3,4-thiadiazol-2-yl)phenyl]pyrazolo[3,4-d]pyrimidin-6-yl]amino]-N-cyclopropyl-1-methyl-cyclopentane-carboxamide]
pIC50 [1]: 6.70 to 7.60

CN(CC(N)=O)C(=O)[C@@H]1CC[C@@H](Nc2ncc3c(Br)nn(-c4cc(F)c5ncccc5c4)c3n2)C1 [(1R,3R)-N-(2-amino-2-oxoethyl)-3-((3-bromo-1-(8-fluoroquinolin-6-yl)-1H-pyrazolo[3,4-d]pyrimidin-6-yl)amino)-N-methylcyclopentane-1-carboxamide]
pIC50 [1]: 6.70 to 7.60

CNC(=O)C1(CC(F)(F)F)CC[C@@H](Nc2ncc3c(Br)nn(-c4ccc(-c5nnc(C)s5)c(CCC#N)c4)c3n2)C1 (stereo partly drawn)
pIC50 [1]: 6.70 to 7.60

C[C@H]1CN(C(=O)[C@@H]2CC[C@@H](Nc3ncc4c(Br)nn(-c5ccc6ncccc6c5)c4n3)C2)C[C@H](C)N1 [((1R,3R)-3-((3-bromo-1-(quinolin-6-yl)-1H-pyrazolo[3,4-d]pyrimidin-6-yl)amino)cyclo-pentyl)((3S,5S)-3,5-dimethylpiperazin-1-yl)methanone]
pIC50 [1]: 6.70 to 7.60

CNC(=O)[C@]1(C)CC[C@@H](Nc2ncc3c(Br)nn(-c4ccc(-n5nccc5C)cc4)c3n2)C1 [(1R,3R)-3-[[3-bromo-1-[4-(5-methyl-pyrazol-1-yl)phenyl]pyrazolo[3,4-d]pyrimidin-6-yl]amino]-N,1-dimethyl-cyclopentanecarboxamide]
pIC50 [1]: 6.70 to 7.60

CC1(CNC(=O)[C@@H]2CC[C@@H](Nc3ncc4c(Br)nn(-c5ccc6ncccc6c5)c4n3)C2)COC1 [(1R,3R)-3-((3-bromo-1-(quinolin-6-yl)-1H-pyrazolo[3,4-d]pyrimidin-6-yl)amino)-N-((3-methyloxetan-3-yl)methyl)cyclopentane-1-carboxamide]
pIC50 [1]: 6.30 to 6.70

CNC(=O)[C@]1(C)CC[C@@H](Nc2ncc3c(Br)nn(-c4cc(CNCCOC)cc(OC(F)(F)F)c4)c3n2)C1 [(1R,3R)-3-[[3-bromo-1-[3-[(2-methoxy-ethylamino)methyl]-5-(trifluoromethoxy)phenyl]pyrazolo[3,4-d]pyrimidin-6-yl]amino]-N,1-dimethyl-cyclopentanecarboxamide]
pIC50 [1]: 6.70 to 7.60

O=C([C@@H]1CC[C@@H](Nc2ncc3c(Br)nn(-c4cc(F)c5ncccc5c4)c3n2)C1)N1CCC2(CNC2)C(F)(F)C1 [[(1R,3R)-3-[[3-bromo-1-(8-fluoro-6-quinolyl)pyrazolo[3,4-d]pyrimidin-6-yl]amino]cyclo-pentyl]-(5,5-difluoro-2,7-diazaspiro[3.5]nonan-7-yl)methanone]
pIC50 [1]: > 7.60

Cc1nnc(-c2ccc(-n3nc(Br)c4cnc(N[C@@H]5CCC6(CC(=O)N(C)C6=O)C5)nc43)cc2)s1 (stereo partly drawn)
pIC50 [1]: > 7.60

CNC(=O)[C@]1(C)CC[C@@H](Nc2ncc3c(Br)nn(-c4cc(C#N)cc(OCC(C)O)c4)c3n2)C1 (stereo partly drawn) [(1R,3R)-3-[[3-bromo-1-[3-cyano-5-(2-hydroxypropoxy)phenyl]pyrazolo [3,4-d]pyrimidin-6-yl]amino]-N,1-dimethyl-cyclopentanecarboxamide]
pIC50 [1]: 6.70 to 7.60

COCCNC(=O)[C@@H]1CC[C@@H](Nc2ncc3c(Cl)nn(-c4ccc5ncccc5c4)c3n2)C1 [Example 14, (1R,3R)-3-((3-chloro-1-(quinolin-6-yl)-1H-pyrazolo[3,4-d]pyrimidin-6-yl)amino)-N-(2-methoxyethyl)cyclopentane-1-carboxamide]
pIC50 (GCN2 biochemical IC50, 4 nM GCN2, 2 μM ATP, 80 nM GFP-eIF2α, 90 min RT, read-out: GCN2 activity): > 7.60

CC(O)C(=O)N1CCN(C(=O)[C@@H]2CC[C@@H](Nc3ncc4c(Br)nn(-c5ccc6ncccc6c5)c4n3)C2)CC1 (stereo partly drawn) [1-(4-((1R,3R)-3-((3-bromo-1-(quinolin-6-yl)-1H-pyrazolo[3,4-d]pyrimidin-6-yl)amino)cyclopentane-1-carbonyl)piperazin-1-yl)-2-hydroxypropan-1-one]
pIC50 [1]: 6.70 to 7.60

CNCCc1cc(-n2nc(Br)c3cnc(N[C@@H]4CC[C@@](C)(C(=O)NC)C4)nc32)ccc1-c1ncco1 [(1R,3R)-3-[[3-bromo-1-[3-[2-(methylamino)ethyl]-4-oxazol-2-yl-phenyl]pyrazolo[3,4-d]pyrimidin-6-yl]amino]-N,1-dimethyl-cyclopentanecarboxamide]
pIC50 [1]: 6.70 to 7.60

CNC(=O)[C@]1(C)CC[C@@H](Nc2ncc3c(Br)nn(-c4cc(Cl)c(F)c(CO)c4)c3n2)C1 [(1R,3R)-3-[[3-bromo-1-[3-chloro-4-fluoro-5-(hydroxymethyl)phenyl]pyrazolo[3,4-d]pyrimidin-6-yl]amino]-N,1-dimethyl-cyclopentanecarboxamide]
pIC50 [1]: 6.70 to 7.60

CNC(=O)[C@@]1(CO)CC[C@@H](Nc2ncc3c(Br)nn(-c4ccc(-c5nnc(C)s5)cc4)c3n2)C1 [(1S,3R)-3-[[3-bromo-1-[4-(5-methyl-1,3,4-thiadiazol-2-yl)phenyl]pyrazolo [3,4-d]pyrimidin-6-yl]amino]-1-(hydroxymethyl)-N-methyl-cyclo-pentanecarboxamide]
pIC50 [1]: 6.70 to 7.60

CNC(=O)[C@]1(C)CC[C@@H](Nc2ncc3c(Br)nn(-c4ccc(-c5ncco5)c(OCCO)c4)c3n2)C1 [(1R,3R)-3-[[3-bromo-1-[3-(2-hydroxy-ethoxy)-4-oxazol-2-yl-phenyl]pyrazolo [3,4-d]pyrimidin-6-yl]amino]-N,1-dimethyl-cyclopentanecarboxamide]
pIC50 [1]: > 7.60

COc1cc(-n2nc(Br)c3cnc(N[C@@H]4CC[C@@H](C(=O)NCCS(C)(=O)=O)C4)nc32)ccn1
pIC50 [1]: 6.00 to 6.30

CNC(=O)C1(CCS(C)(=O)=O)CC[C@@H](Nc2ncc3c(Br)nn(-c4ccc(-c5nnc(C)s5)cc4)c3n2)C1 (stereo partly drawn) [(3R)-3-[[3-bromo-1-[4-(5-methyl-1,3,4-thiadiazol-2-yl)phenyl]pyrazolo[3,4-d]pyrimidin-6-yl]amino]-N-methyl-1-(2-methylsulfonylethyl)cyclopentane-carboxamide]
pIC50 [1]: 6.70 to 7.60

CC(=O)OCC(=O)N1CCN(C(=O)[C@@H]2CC[C@@H](Nc3ncc4c(Br)nn(-c5cc(C#N)c6ncccc6c5)c4n3)C2)CC1 [2-(4-((1R,3R)-3-((3-bromo-1-(8-cyanoquinolin-6-yl)-1H-pyrazolo[3,4-d]pyrimidin-6-yl)amino)cyclopentane-1-carbonyl)piperazin-1-yl)-2-oxoethyl acetate]
pIC50 [1]: > 7.60

CN(C)C(=O)C1(NC(=O)[C@@H]2CC[C@@H](Nc3ncc4c(Br)nn(-c5cc(F)c6ncccc6c5)c4n3)C2)CC1 [(1R,3R)-3-[[3-bromo-1-(8-fluoro-6-quinolyl)pyrazolo[3,4-d]pyrimidin-6-yl]amino]-N-[1-(dimethylcarbamoyl)cyclopropyl]cyclo-pentanecarboxamide]
pIC50 [1]: 6.70 to 7.60

Cc1nnc(-c2ccc(-n3nc(Br)c4cnc(N[C@@H]5CCC(C)(CP(C)(C)=O)C5)nc43)cc2CCC#N)s1 (stereo partly drawn)
pIC50 [1]: 6.70 to 7.60

CNC(=O)[C@]1(C)CC[C@@H](Nc2ncc3c(Br)nn(-c4cc(CNCCC#N)c5ncccc5c4)c3n2)C1 [(1R,3R)-3-[[3-bromo-1-[8-[(2-cyanoethyl-amino)methyl]-6-quinolyl]pyrazolo[3,4-d]pyrimidin-6-yl]amino]-N,1-dimethyl-cyclopentanecarboxamide]
pIC50 [1]: 6.70 to 7.60

COC[C@H](C)NC(=O)[C@@H]1CCC[C@@H](Nc2ncc3c(Br)nn(-c4ccc5ncccc5c4)c3n2)C1 [(1R,3R)-3-((3-bromo-1-(quinolin-6-yl)-1H-pyrazolo[3,4-d]pyrimidin-6-yl)amino)-N-((S)-1-methoxypropan-2-yl)cyclohexane-1-carboxamide]
pIC50 [1]: 6.00 to 6.30

CNC(=O)[C@]1(C)CC[C@@H](Nc2ncc3c(Br)nn(-c4cncc(C#N)c4)c3n2)C1 [(1R,3R)-3-[[3-bromo-1-(5-cyano-3-pyridyl)pyrazolo[3,4-d]pyrimidin-6-yl]amino]-N,1-dimethyl-cyclopentane-carboxamide]
pIC50 [1]: 6.70 to 7.60

CNC(=O)[C@]1(C)CC[C@@H](Nc2ncc3c(Br)nn(-c4cc(F)c5nc(C)ccc5c4)c3n2)C1 [(1R,3R)-3-[[3-bromo-1-(8-fluoro-2-methyl-6-quinolyl)pyrazolo[3,4-d]pyrimidin-6-yl]amino]-N,1-dimethyl-cyclopentane-carboxamide]
pIC50 [1]: > 7.60

CNC(=O)[C@]1(C)CC[C@@H](Nc2ncc3c(Br)nn(-c4ccc(C#N)c(OCC(C)O)c4)c3n2)C1 (stereo partly drawn) [(1R,3R)-3-[[3-bromo-1-[4-cyano-3-(2-hydroxypropoxy)phenyl]pyrazolo [3,4-d]pyrimidin-6-yl]amino]-N,1-dimethyl-cyclopentanecarboxamide]
pIC50 [1]: 6.70 to 7.60

CNC(=O)[C@]1(C)CC[C@@H](Nc2ncc3c(Br)nn(-c4cc(CCC(=O)O)c5ncccc5c4)c3n2)C1 [3-[6-[3-bromo-6-[[(1R,3R)-3-methyl-3-(methylcarbamoyl)cyclopentyl]amino]pyrazolo[3,4-d]pyrimidin-1-yl]-8-quinolyl]propanoic acid]
pIC50 [1]: > 7.60

CNC(=O)[C@]1(C)CC[C@@H](Nc2ncc3c(Br)nn(-c4cc(CNCCC#N)cc(OC(F)(F)F)c4)c3n2)C1 [(1R,3R)-3-[[3-bromo-1-[3-[(2-cyanoethyl-amino)methyl]-5-(trifluoromethoxy)phenyl]pyrazolo[3,4-d]pyrimidin-6-yl]amino]-N,1-dimethyl-cyclopentane-carboxamide]
pIC50 [1]: 6.70 to 7.60
